# From patent US20080122428A1, “Optimized Determination of Voltage Changes Using a Voltage-Sensitive Dye” (Max-Planck-Gesellschaft zur Forderungder Wissenschaften e. …, priority 2003, published 2008)
# Several values for one entry are separate records, joined by “and”; a condition that tells them apart may be missing. Equal entries are not always repeated.
# Assays:
# [1] = test system: Retzius cells (leech neurons); settings: cited from earlier work; for shift of the excitation spectrum per membrane voltage: Kuhn and Fromherz, 2003
# [2] = test system: HEK293 cells; assay: Example 4: HEK293 cells stained by bath application, alternating external electric fields, 1 kHz line scans; type: cell-based
# From the text: ANNINE-6 is a new, completely anellated hemicyanine dye. […] Several biological preparations were used for testing. First, HEK293 cells were stained by bath application of the dye. Alternating external electric fields generated by applying voltages between two Ag/AgCl-wires in a closed chamber (1). To achieve the high light intensities, which are necessary to excite the dye at the very red edge of the excitation spectrum, we used laser scanning microscopes with Ar-Ion Laser for one-photon excitation (488 nm, 514 nm) and Ti:Sapphire Laser for two-photon excitation (976 nm). The fluorescence changes measured with 1 kHz line scans followed the applied voltage, which was alternated every 10 ms, without discernible delay. We found relative fluorescence increases of more that 60%/100 mV for hyperpolarizing membrane potential changes and decreases of more than 40%/100 mV for depolarizing membrane potential changes at 514 nm excitation wavelength. The asymmetry of the fluorescence change is expected given the spectral shape and a pure electrochromic spectral shift. We found changes of +40%/100 mV and −30%/100 mV both for one-photon excitation at 488 nm and two-photon excitation at 976 nm. Preliminary measurements from cultured hippocampal slices using a soluble variant of ANNINE-6 show fast fluorescence changes of up to 8% upon stimulation of the Schaffer collaterals in CA1. • (1) D. Gross, L. M. Loew and W. Webb. Biophys. J., 50: 339-348, 1986.
# [3] = test system: HEK293 cells; assay: Voltage sensitivity in HEK293 cells by extracellular electric field, laser line scans with one- or two-photon excitation; type: cell-based
# Procedure: HEK293 cells (DSMZ GmbH, Braunschweig, Germany) were cultured using standard methods on glass coverslips (diameter 24 mm, Assistent, Glaswarenfabrik Karl Hecht KG, Sondheim, Germany). The coverslips were coated with fibronectin (No. 68885, Boehringer-Mannheim, Germany) in PBS (140 mM NaCl, 2.7 mM KCl, 1.5 mM KH2PO4, 6.5 mM Na2HPO4×2H2O) by incubation for 45 min in a 10 μg/ml fibronectin solution and a single subsequent wash with PBS. The cells were plated at densities of 15000 cells per coverslip and were used for up to three days after plating, while the cell density was still low. All measurements were done in a Ringer solution containing (in mM) 135 NaCl, 5.4 KCl, 1.0 MgCl2, 1.8 CaCl2 and 5.0 Hepes, adjusted to pH 7.2 with NaOH.
# ANNINE-6 (FIG. 19a) was dissolved in a solution of 20% Pluronic F-127 DMSO (P-3000, Molecular Probes, Eugene, Oreg.) at a concentration of 0.5 mg/ml and sonicated for 15 min. The glass coverslip with the HEK293 cells was taken out of the culture well, exposed to the staining solution (dye stock solution diluted 1:100 into Ringer) for 5 min and finally washed with pure Ringer solution.
# To change the voltage across the cell membrane we applied an extracellular electric field. This method (Gross et al., 1986) has a somewhat reduced voltage calibration accuracy but is much simpler than whole-cell recordings, for example, permitting the transfer of the recording chamber between microscope setups thereby allowing the exploration of a wider parameter range. Our custom-made chamber (FIG. 19b) consists of a 2.6 mm wide, and 30 mm long slit in a 0.5 mm thick PMMA (Plexiglas) plate. Two chlorided silver wires (diameter 0.127 mm, Cat. No. 7860, A-M Systems, INC., Everett, Wash.) for the application of the electrical field were fixed to the long edges of the channel with two-component epoxy resin glue (plus sofortfest, UHU, Bühl, Germany). This chamber was sealed on the bottom with a clean coverslip (24 mm×50 mm) attached with silicone grease (Bayer-silicone, Bayer AG, Leverkusen, Germany). The coverslip with the stained HEK293 cells was dried around the edges to get a watertight seal with silicone grease and then mounted cells down on the top side of the chamber. Two openings allowed the continuous perfusion (about 2 ml/min) with physiological saline using a gravity-fed perfusion system.
# The voltage stimuli were generated by an arbitrary waveform generator (model 395, wavetek, Ismaning, Germany) and amplified by a custom-built push-pull circuit (using two operational amplifiers, OPA547, Texas Instruments Inc., Texas, USA, FIG. 19c). To avoid electrolysis at the electrodes and ionophoresis of cell-surface components all applied voltage waveforms were purely AC. Short pulses were used to minimize heating (FIG. 19d). The application of the pulse protocol was synchronized to the start of line scan acquisition.
# For one-photon excitation we used laser scanning microscopes (Zeiss LSM 510 NLO and Leica TCS SP2) with Ar-ion laser excitation (458 nm, 488 nm, or 514 nm). We used laser illumination instead of, for example, Xe arc-lamps because narrow spectral width and high intensities are needed to obtain sufficient excitation of the dye at the spectral edge. The excitation light at the Zeiss microscope was coupled in via the main dichroic beam splitters (HFT 458/514, reflecting the 458 nm and 514 nm laser lines or HFT KP 700/488, a combined 700 nm short pass and 488 nm reflector). The emitted light was filtered by a long-pass filter (LP560). The Leica microscope uses an acousto-optical main beam splitter and fluorescence was collected in the range of 520 nm to 800 nm. The maximal excitation intensities at the sample were for the Zeiss (Leica) microscope: 1.3 mW (1.5 mW) at 514 nm, 200 μW (250 μW) at 488 nm and 28 μW (35 μW) at 458 nm. The pinhole was completely opened up (8.5 airy units) to collect as much light as possible. […]
# [4] = test system: HEK293 cells; assay: Tight-seal whole-cell voltage-clamp recordings of HEK293 cells, sensitivity at 514 nm; type: cell-based; settings: four cells, voltage jumps +/−25, +/−50, +/−75 mV
# Procedure: Whole-cell tight-seal voltage-clamp recordings on HEK293 cells were preformed using pipettes with a resistance of around 6 MOhm and an epc9 amplifier (HEKA, Göttingen, Germany).
# To test our assumption about the extracellular stimulation the sensitivity at 514 nm was tested by controlling the membrane voltage directly using tight-seal whole-cell recordings of HEK293 cells (FIG. 22). The mean sensitivity measured in four cells using voltage jumps of +/−25, +/−50 and +/−75 mV is −0.37±0.02%/mV, in agreement with the results achieved by the external electric field method.
# [5] = Maximal theoretical sensitivity for excitation in the Boltzmann tail; settings: from shift of 1.6 cm^−1/mV
# From the text: A common approximation used for spectral shapes is the log-normal function (Siano and Metzler, 1969), which would imply an ever increasing, in fact, diverging sensitivity toward longer wavelengths and the vanishing of excitation above a wavelength of 591 nm. However, simple considerations predict a tail in the absorption spectrum F that follows a Boltzmann distribution (Hinshelwood, 1940)
# because an electronic transition between the ground and the excited state with the energy difference h ν00c (h Planck constant, ν00 wavenumber of the 00 transition, c light velocity) and an excitation energy h νc ( ν wavenumber of excitation), which is assumed to be below h ν00c, requires additional vibrational energy E=h ν00c−h νc to reach the lowest excited state, in analogy to anti-Stokes lines in scattering theory. […]
# for excitation in the Boltzmann tail (Δμ is the intramolecular charge displacement upon electronic excitation, d is the membrane thickness, θ is the angle between charge displacement and membrane normal). […] For comparison: the highest measured sensitivity value was −0.52±0.05%/mV (with 2-photon excitation at 1040 nm, corresponding to 520 nm). […]
smiles,measurement,setting,value
CCCCN(CCCC)c1ccc2c(ccc3c2ccc2c4cc[n+](CCCCS(=O)(=O)[O-])cc4ccc23)c1 [ANNINE-5],shift of the excitation spectrum per membrane voltage,[1],1.3 cm^−1/mV
"CCCCN(CCCC)c1ccc2cc(C=Cc3cc[n+](CCCCS(=O)(=O)[O-])cc3)ccc2c1 [di-4-ANEPBS, reference compound]",shift of the excitation spectrum per membrane voltage,[1],0.9 cm^−1/mV
CCCCN(CCCC)c1ccc2c(ccc3c2ccc2c4ccc5c[n+](CCCCS(=O)(=O)[O-])ccc5c4ccc32)c1 [ANNINE-6],sensitivity in Leech,"[1]; 488 nm, published (Kuhn and Fromherz, 2003)",−0.29 %/mV
same,shift of the excitation spectrum per membrane voltage,[1],1.6 cm^−1/mV
same,relative fluorescence decrease,"[2]; depolarizing membrane potential changes, 514 nm",more than 40 %/100 mV
same,relative fluorescence increase,"[2]; hyperpolarizing membrane potential changes, 514 nm",> 60 %/100 mV
same,"relative fluorescence change, negative",[2]; one-photon excitation 488 nm,−30 %/100 mV
same,"relative fluorescence change, positive",[2]; one-photon excitation 488 nm,+40 %/100 mV
same,"relative fluorescence change, negative",[2]; two-photon excitation 976 nm,−30 %/100 mV
same,"relative fluorescence change, positive",[2]; two-photon excitation 976 nm,+40 %/100 mV
same,fluorescence change for large voltage swing,"[3]; 100 mV depolarization, 514 nm",−28%
same,fluorescence change for large voltage swing,"[3]; 100 mV depolarization, 1040 nm",−40%
same,fluorescence change for large voltage swing,"[3]; 100 mV hyperpolarization, 514 nm",50%
same,fluorescence change for large voltage swing,"[3]; 100 mV hyperpolarization, 1040 nm",70%
same,sensitivity,"[3]; 515 nm, 1-photon, dye incorporated inside the cells (as expected)",0.37 %/mV
same,sensitivity,"[3]; 515 nm, 2-photon, dye incorporated inside the cells (as expected)",0.52 %/mV
same,2PE sensitivity higher than 1PE sensitivity at half the wavelength,"[3]; 976 nm versus 488 nm, same cell",about 20%
same,sensitivity at end of repeated line scans,[3]; after 900 line scans at 1040 nm over a period of over 2 h,−0.58±0.02 %/mV
same,"slope sensitivity at the resting potential, single cell","[3]; cell of FIG. 21a, one-photon 458 nm",−0.16 %/mV
same,"slope sensitivity at the resting potential, single cell","[3]; cell of FIG. 21a, one-photon 488 nm",−0.26 %/mV
same,"slope sensitivity at the resting potential, single cell","[3]; cell of FIG. 21a, one-photon 514 nm",−0.37 %/mV
same,"slope sensitivity at the resting potential, single cell","[3]; cell of FIG. 23, two-photon 960 nm",−0.35 %/mV
same,"slope sensitivity at the resting potential, single cell","[3]; cell of FIG. 23, two-photon 980 nm",−0.41 %/mV
same,"slope sensitivity at the resting potential, single cell","[3]; cell of FIG. 23, two-photon 1000 nm",−0.49 %/mV
same,"slope sensitivity at the resting potential, single cell","[3]; cell of FIG. 23, two-photon 1020 nm",−0.54 %/mV
same,"slope sensitivity at the resting potential, single cell","[3]; cell of FIG. 23, two-photon 1040 nm",−0.59 %/mV
same,sensitivity,"[3]; excitation wavelength 515 nm, 1-photon, dye at the outer side of the membrane",−0.37 %/mV
same,small-signal fractional fluorescence change (mean sensitivity),"[3]; one-photon excitation 488 nm, four cells",−0.28 %/mV and −0.28±0.03 %/mV
same,small-signal fractional fluorescence change (mean sensitivity),"[3]; one-photon excitation 514 nm, four cells",−0.35 %/mV and −0.35±0.03 %/mV
same,sensitivity at begin of repeated line scans,"[3]; single cell, excitation at 1040 nm",−0.59±0.01 %/mV
same,small-signal fractional fluorescence change (mean sensitivity),"[3]; two-photon excitation 960 nm, 4 cells",−0.29 %/mV and −0.29±0.05 %/mV
same,mean sensitivity,"[3]; two-photon excitation 980 nm, 4 cells",−0.35±0.05 %/mV
same,small-signal fractional fluorescence change (mean sensitivity),"[3]; two-photon excitation 1000 nm, 4 cells",−0.43 %/mV and −0.43±0.05 %/mV
same,mean sensitivity,"[3]; two-photon excitation 1020 nm, 4 cells",−0.47±0.06 %/mV
same,small-signal fractional fluorescence change (mean sensitivity),"[3]; two-photon excitation 1040 nm, 4 cells",−0.52 %/mV and −0.52±0.06 %/mV and −0.52±0.05 %/mV
same,mean sensitivity with direct control of membrane voltage,[4],−0.37±0.02 %/mV
same,Boltzmann-tail sensitivity (theoretical limit),[5],−0.77 %/mV
"CCCCCN(CCCCC)c1ccc(/C=C/C=C/c2cc[n+](CCCCS(=O)(=O)[O-])cc2)cc1 [RH-421, reference compound]",shift of the excitation spectrum per membrane voltage,[1],0.5 cm^−1/mV
